# Experimental data from paper PMC6079014, “Calcium is an essential cofactor for metal efflux by the ferroportin transporter family” (Nature Communications, 2018).
# Values joined by “and” are separate entries in the source; they are usually repeats but may differ in a detail not shown here. Equal values may be shown once.
# Key:
# human Fpn = biological target: T1, human Fpn (Homo sapiens, UniProt Q9NP59); assay: Radiotracer metal efflux assay in Xenopus oocytes expressing human Fpn; format: cell-based
# T1 construct: expressed in transfected cells; host or cells: Xenopus laevis oocytes injected with Fpn RNA
# T1 sequence (Q9NP59 1-571): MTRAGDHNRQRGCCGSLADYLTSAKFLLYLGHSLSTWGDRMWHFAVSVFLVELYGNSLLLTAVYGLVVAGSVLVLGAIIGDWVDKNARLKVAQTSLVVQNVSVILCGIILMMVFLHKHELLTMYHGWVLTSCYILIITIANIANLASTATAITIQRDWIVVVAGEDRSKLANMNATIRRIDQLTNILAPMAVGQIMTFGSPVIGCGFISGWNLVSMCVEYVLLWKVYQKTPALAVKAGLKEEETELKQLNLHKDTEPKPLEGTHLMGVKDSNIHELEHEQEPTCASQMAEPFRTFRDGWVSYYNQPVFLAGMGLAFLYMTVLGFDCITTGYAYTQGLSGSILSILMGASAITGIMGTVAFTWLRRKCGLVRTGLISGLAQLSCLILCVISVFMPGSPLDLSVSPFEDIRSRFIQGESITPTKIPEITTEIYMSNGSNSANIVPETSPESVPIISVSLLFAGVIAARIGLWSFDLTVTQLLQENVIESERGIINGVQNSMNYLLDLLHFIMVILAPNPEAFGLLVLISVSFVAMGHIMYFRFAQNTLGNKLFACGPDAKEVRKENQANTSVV
# Protocol: We performed laparotomy and ovariectomy on adult female Xenopus laevis frogs (Nasco, Fort Atkinson, WI) under 2-aminoethylbenzoate methanesulfonate anesthesia (0.2%, by immersion, to effect) following a protocol approved by the University of Cincinnati Institutional Animal Care and Use Committee. Ovarian tissue was isolated and treated for 3 h with […] collagenase A (Roche Diagnostics Corp., Indianapolis, IN) in calcium-free-modified Barths’ medium (MBM) of composition 88 mM NaCl, 1 mM KCl, 2.4 mM NaHCO3, 1.57 mM MgSO4, 0.66 mM NaNO3, 10 mM 4-(2-hydroxyethyl)-1-piperazineethanesulfonic acid (HEPES), buffered to pH 7.5 by using 2-amino-2-hydroxymethyl-propane-1,3-diol (Tris base). We isolated defolliculate stage V–VI oocytes stored at 17 °C in MBM of composition 88 mM NaCl, 1 mM KCl, 2.4 mM NaHCO3, 0.82 MgSO4, 0.75 mM CaCl2, 0.66 mM NaNO3, 10 mM HEPES, buffered to pH 7.5 by using Tris base, with 50 mg l^−1 ciprofloxacin. We expressed in Xenopus oocytes the 1A transcript form of human Fpn fused at its C-terminus with the enhanced green fluorescent protein (GFP) as described. Oocytes were injected with ∼50 ng of Fpn RNA and incubated for 4–6 days before being used in functional assays. Control oocytes were noninjected.
# We measured metal efflux from oocytes expressing Fpn by using a radiotracer assay. Radiochemicals ^55Fe, ^45Ca, ^57Co, ^65Zn were obtained from Perkin-Elmer Life Science Products (Boston, MA) and ^63Ni from the National Isotope Development Center (Oak Ridge, TN). We used ^55Fe (added as FeCl3) at final specific activity 0.4–2.0 GBq mg^−1, ^45Ca (added as CaCl2) at final specific activity 0.5–0.9 GBq mg^−1, ^57Co (added as CoCl2) at final specific activity 1.6 GBq mg^−1, ^65Zn (added as ZnCl2) at final specific activity 0.2 GBq mg^−1, and ^63Ni (added as NiCl2) at final specific activity 0.6 GBq mg^−1. Oocytes were injected with 50 nl of 5 μM metal radionuclide (*M) in vehicle of composition 250 mM KCl, 5 mM nitrilotriacetic acid, trisodium salt, buffered to pH 7.0 with ∼4 mM 2-(N-morpholino)ethanesulfonic acid (MES) (GFS Chemicals, Columbus, OH). After injection, oocytes were briefly stored in ice-cold MBM (for 1–5 min) prior to the start of the efflux assay.
# To initiate the efflux assay, we placed oocytes in standard efflux medium of composition 100 mM NaCl, 1 mM KCl, 2 mM CaCl2, 1 mM MgCl2, 0.5 mM bathophenanthroline disulfonic acid (BPS), 1 mM nitrilotriacetic acid (NTA) trisodium salt, 50 μg/ml apotransferrin (ApoTf) (R&D Systems Inc., Minneapolis, MN), buffered with 0–5 mM MES, and 0–5 mM N′,N′-diethylpiperazine to obtain pH 7.5, with the following exceptions. To prepare Ca^2+-free medium, we replaced 2 mM CaCl2 with 4 mM NaCl and added 1 mM ethylene glycol-bis(2-aminoethyl ether)-N,N,N′,N′-tetraacetic acid (EGTA). To prepare Mg^2+-free medium, we replaced […] MgCl2 with 4 mM NaCl and added 1 mM ethylenediaminetetraacetic acid (EDTA). To measure ^55Fe efflux as a function of extracellular [Ca^2+] over the range 0.1–20 mM Ca^2+ (Figs. 1c, 6b), we adjusted [NaCl] and [CaCl2] on a 2:1 molar basis without the addition of EGTA. Oocytes were then transferred individually in 200 µl of medium to flat-bottomed wells of a 96-well plate and incubated 30 min—within the linear phase of metal efflux[10] —at 23–27 °C with gentle rocking. To terminate efflux, we removed 150 µl of medium (0.75 × [N0–Nt]) from each well for liquid-scintillation counting in Ultima Gold liquid-scintillation cocktail (Perkin-Elmer, Waltham, MA). The corresponding oocytes were rinsed twice in ice-cold medium (without BPS), solubilized with 5% (w/v) sodium dodecyl sulfate, and counted (Nt). We fit our data for oocyte radiotracer content (N) over time (Eq. (1)) and obtained the first-order rate constant (k) for metal radionuclide (*M) efflux for individual oocytes. N0 and Nt are counts per min (cpm) in the oocyte at time = 0 and time = t, respectively.1 Nt=N0⋅exp(-k⋅t) […]
# BbFpn D24A = BbFpn D24A (Bdellovibrio bacteriovorus, UniProt Q6MLJ0, D24A); assay: Isothermal titration calorimetry, D24A BbFpn; format: binding, Bdellovibrio bacteriovorous
# BbFpn N196A = BbFpn N196A (Bdellovibrio bacteriovorus, UniProt Q6MLJ0, N196A); assay: Isothermal titration calorimetry, N196A BbFpn; format: binding, Bdellovibrio bacteriovorous
# [1] = 2 mM extracellular Ca2+ vs 0 mM Ca2+ plus 1 mM EGTA
# Sequence of BbFpn N196A (Q6MLJ0 whole entry N196A): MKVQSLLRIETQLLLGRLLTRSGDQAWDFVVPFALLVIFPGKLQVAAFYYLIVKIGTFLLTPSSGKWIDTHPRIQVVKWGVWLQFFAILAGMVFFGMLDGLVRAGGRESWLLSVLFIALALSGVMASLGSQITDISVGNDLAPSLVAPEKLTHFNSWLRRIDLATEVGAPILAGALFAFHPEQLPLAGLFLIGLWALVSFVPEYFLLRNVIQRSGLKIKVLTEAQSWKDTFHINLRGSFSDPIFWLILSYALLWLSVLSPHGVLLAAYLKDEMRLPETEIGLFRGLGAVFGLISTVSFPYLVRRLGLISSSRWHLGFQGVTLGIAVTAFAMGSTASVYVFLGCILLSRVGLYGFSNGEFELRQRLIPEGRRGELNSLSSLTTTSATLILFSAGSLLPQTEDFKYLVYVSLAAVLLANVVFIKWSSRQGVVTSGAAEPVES
# Sequence of BbFpn D24A (Q6MLJ0 whole entry D24A): as the sequence (Q6MLJ0 whole entry N196A) above, with D24A, A196N counted along it
structure (smiles),measurement,setting,value
"[Ca+2] [Ca^2+, calcium]",EC50,human Fpn,900 µM and 800 to 900 µM and 800 µM
same,Dependence of Fpn-mediated 55Fe efflux on extracellular Ca2+,human Fpn; [1],dependent
same,Effect of extracellular Ca2+ on Fpn-mediated 57Co efflux,human Fpn; [1],activated
same,Effect of extracellular Ca2+ on Fpn-mediated 63Ni efflux,human Fpn; [1],activated
same,45Ca efflux from oocytes expressing Fpn vs control,human Fpn; oocytes injected with 45Ca,did not stimulate
same,Binding to D24A BbFpn by ITC (in words),BbFpn D24A,complete loss
same,Binding to N196A BbFpn by ITC (in words),BbFpn N196A,complete loss
